In this assay the target is T1, Human TRPC6 (Homo sapiens, UniProt Q9Y210).
T1 construct: expressed in transfected cells
T1 sequence (Q9Y210 1-931): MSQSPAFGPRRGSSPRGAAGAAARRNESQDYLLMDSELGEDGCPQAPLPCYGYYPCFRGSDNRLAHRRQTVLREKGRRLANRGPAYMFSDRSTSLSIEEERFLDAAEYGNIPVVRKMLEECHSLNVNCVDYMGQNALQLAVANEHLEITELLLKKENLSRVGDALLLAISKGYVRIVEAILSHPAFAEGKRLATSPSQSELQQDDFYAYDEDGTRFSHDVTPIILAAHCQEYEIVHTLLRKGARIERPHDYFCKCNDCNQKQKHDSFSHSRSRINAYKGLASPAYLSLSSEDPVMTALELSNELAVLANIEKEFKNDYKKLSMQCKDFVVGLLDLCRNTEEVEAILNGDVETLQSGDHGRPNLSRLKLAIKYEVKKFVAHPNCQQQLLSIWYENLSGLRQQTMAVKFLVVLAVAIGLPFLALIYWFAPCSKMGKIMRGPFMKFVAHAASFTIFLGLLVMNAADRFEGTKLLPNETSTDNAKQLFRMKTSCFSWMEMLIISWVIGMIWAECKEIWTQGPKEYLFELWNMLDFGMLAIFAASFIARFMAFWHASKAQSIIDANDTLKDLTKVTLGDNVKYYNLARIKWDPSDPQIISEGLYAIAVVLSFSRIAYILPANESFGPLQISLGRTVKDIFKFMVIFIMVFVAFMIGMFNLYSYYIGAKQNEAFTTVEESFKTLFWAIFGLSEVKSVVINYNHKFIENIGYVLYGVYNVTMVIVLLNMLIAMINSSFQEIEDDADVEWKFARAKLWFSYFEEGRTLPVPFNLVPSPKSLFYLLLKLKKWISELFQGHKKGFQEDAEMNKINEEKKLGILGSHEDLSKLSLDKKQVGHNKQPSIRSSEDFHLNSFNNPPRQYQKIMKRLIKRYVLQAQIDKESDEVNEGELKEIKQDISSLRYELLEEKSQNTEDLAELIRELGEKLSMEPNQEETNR
Description: Evaluation of TRPC6 channel inhibitory activity (1), FLIPR Calcium 5 Assay Kit, OAG stimulation (Compound Nos. 1-1293). In kind it is cell-based. The following applies: Human TRPC6 stably-expressing cells, OAG 30 μM, FLIPR Calcium 5 Assay Kit; read-out: Inhibitory activity (pIC50 class) (converted). The gist of the method:
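The FLIPR signal is maximum fluorescence after 30 μM OAG minus minimum before compound, measured in a human TRPC6 stable line loaded with Calcium 5 dye. Compounds were preincubated 20 min. pIC50 came from four-parameter logistic fitting of inhibition rates and is given as symbol ranges.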
As to `COC(C)(C)CN(C)c1cc(Oc2cc(C#N)ccc2-c2ncc(CN)cn2)n(C)n1` [compound 867, 4-[5-(aminomethyl)pyrimidin-2-yl]-3-[5-[(2-methoxy-2-methylpropyl)-methylamino]-2-methylpyrazol-3-yl]oxybenzonitrile], the IC50 was above 1000 nM.
The figure for `Cc1nc(Oc2cc(C#N)ccc2-c2ncc(CCN)cn2)cc(-c2ncc(C)s2)n1` [compound 602, 4-[5-(2-aminoethyl)pyrimidin-2-yl]-3-[2-methyl-6-(5-methyl-1,3-thiazol-2-yl)pyrimidm-4-yl]oxybenzonitrile] is 10 to 1000 nM.
To `Cc1nc(Oc2cc(C#N)ccc2-n2cc([C@@H](O)CN)cn2)cc(N2CCC(C(F)(F)F)CC2)n1` [Compound 253, 4-[4-[(1R)-2-amino-1-hydroxyethyl]pyrazol-1-yl]-3-[2-methyl-6-[4-(trifluoromethyl)piperidin-1-yl]pyrimidin-4-yl]oxybenzonitrile] belongs below 10 nM.
For `Cc1c(Oc2cc(C#N)ccc2-c2ncc(CCN)cn2)cnn1C(C)C` [compound 806, 4-[5-(2-aminoethyl)pyrimidin-2-yl]-3-(5-methyl-1-propan-2-ylpyrazol-4-yl)oxybenzonitrile], the IC50 is 10 to 1000 nM.
The figure for `Cn1nc(-c2ccccn2)cc1Oc1cc(C#N)ccc1-c1ncc(CNC2(C)COC2)cn1` [compound 665, 4-[5-[[(3-methyloxetan-3-yl)amino]methyl]pyrimidin-2-yl]-3-(2-methyl-5-pyridin-2-ylpyrazol-3-yl)oxybenzonitrile] is above 1000 nM; for `Cc1cc(Oc2cc(C#N)ccc2-c2ccc(CN)cn2)cc(NC2CCOCC2)n1` [compound 647, 4-[5-(aminomethyl)pyridin-2-yl]-3-[2-methyl-6-(oxan-4-ylamino)pyridin-4-yl]oxybenzonitrile] it is above 1000 nM.
Regarding `Cn1nc(N2CCOCC2)cc1Oc1cc(F)ccc1-c1ncc(CN)cn1` [compound 974, [2-[4-fluoro-2-(2-methyl-5-morpholin-4-ylpyrazol-3-yl)oxyphenyl]pyrimidin-5-yl]methanamine], the IC50 was 10 to 1000 nM.
As for `Cn1nc(-c2ccc(F)cc2)cc1Oc1cc(C#N)ccc1-c1ccc(C(O)CN)cc1` (centres unmarked) [Compound 183, 4-[4-(2-amino-1-hydroxyethyl)phenyl]-3-[5-(4-fluorophenyl)-2-methylpyrazol-3-yl]oxybenzonitrile], the IC50 is below 10 nM.
To `N#Cc1ccc(-c2ncc(CN)cn2)c(Oc2nnc(Br)s2)c1` [compound 700, 4-[5-(aminomethyl)pyrimidin-2-yl]-3-[(5-bromo-1,3,4-thiadiazol-2-yl)oxy]benzonitrile] belongs above 1000 nM; to `Cc1cc(Oc2cc(C#N)ccc2-c2ncc(CCN)cn2)cc(-c2ccccn2)n1` [compound 371, 4-[5-(2-aminoethyl)pyrimidin-2-yl]-3-(2-methyl-6-pyridin-2-ylpyridin-4-yl)oxybenzonitrile], below 10 nM.
To `CC(C)c1cc(Oc2cc(C#N)ccc2-c2ccc(CN)n3ccnc23)n(C)n1` [compound 711, 4-[5-(aminomethyl)imidazo[1,2-a]pyridin-8-yl]-3-(2-methyl-5-propan-2-ylpyrazol-3-yl)oxybenzonitrile] belongs below 10 nM; to `CC(C)OCCN(C)c1cc(Oc2cc(C#N)ccc2-c2ncc(CCN)cn2)n(C)n1` [compound 863, 4-[5-(2-aminoethyl)pyrimidin-2-yl]-3-[2-methyl-5-[methyl(2-propan-2-yloxyethyl)amino]pyrazol-3-yl]oxybenzonitrile], above 1000 nM; to `Cn1nc(C(F)(F)F)cc1-c1cc(Oc2cc(C#N)ccc2-c2ccc(CCN)cc2)cnn1` [Compound 111, 4-[4-(2-aminoethyl)phenyl]-3-[6-[2-methyl-5-(trifluoromethyl)pyrazol-3-yl]pyridazin-4-yl]oxybenzonitrile], 10 to 1000 nM.
As to `COCCN(C)c1cc(Oc2cc(C#N)ccc2-c2ncc(CCN)cn2)cc(C)n1` [compound 458, 4-[5-(2-aminoethyl)pyrimidin-2-yl]-3-[2-[2-methoxyethyl(methyl)amino]-6-methylpyridin-4-yl]oxybenzonitrile], the IC50 was below 10 nM.
The figure for `Cc1cc(Oc2cc(C#N)ccc2-c2ccc(C[C@H](N)C(=O)O)cc2)cc(N2CCOCC2)n1` [compound 435, (2S)-2-amino-3-[4-[4-cyano-2-(2-methyl-6-morpholin-4-ylpyridin-4-yl)oxyphenyl]phenyl]propanoic acid] is above 1000 nM.
The figure for `N#Cc1ccc(-c2ccc(CCN)cc2)c(Cn2cnc(-n3ccnn3)c2)c1` [compound 1122, 4-[4-(2-aminoethyl)phenyl]-3-[[4-(triazol-1-yl)imidazol-1-yl]methyl]benzonitrile] is above 1000 nM; for `Cn1nc(C(F)F)cc1Oc1cc(C#N)ccc1-c1ncc(CN)cn1` [compound 829, 4-[5-(aminomethyl)pyrimidin-2-yl]-3-[5-(difluoromethyl)-2-methylpyrazol-3-yl]oxybenzonitrile] it is 10 to 1000 nM; for `Cc1nc(N2CCOCC2)sc1C(=O)c1cc(C#N)ccc1-c1ccc(CCN)cc1` [compound 1059, 4-[4-(2-aminoethyl)phenyl]-3-(4-methyl-2-morpholin-4-yl-1,3-thiazole-5-carbonyl)benzonitrile] it is below 10 nM.
The figure for `CC(C)n1cc(C(=O)c2cc(C#N)ccc2-c2ncc(CN)cn2)cn1` [compound 1045, 4-[5-(aminomethyl)pyrimidin-2-yl]-3-(1-propan-2-ylpyrazole-4-carbonyl)benzonitrile] is below 10 nM.
`Cc1nc(-c2cccc(F)c2)cn1Cc1cc(C#N)ccc1-c1ncc([C@H](O)CN)cn1` [compound 1162, 4-[5-[(1S)-2-amino-1-hydroxyethyl]pyrimidin-2-yl]-3-[[4-(3-fluorophenyl)-2-methylimidazol-1-yl]methyl]benzonitrile]: the IC50 was 10 to 1000 nM.
To `Cc1nc(Oc2cc(C#N)ccc2-c2ncc(CCN)cn2)cc(O[C@H]2CCOC2)n1` [compound 888, 4-[5-(2-aminoethyl)pyrimidin-2-yl]-3-[2-methyl-6-[(3S)-oxolan-3-yl]oxypyrimidin-4-yl]oxybenzonitrile] belongs 10 to 1000 nM; to `N#Cc1ccc(-c2ncc(CN)cn2)c(Oc2cnnc(OC3CCCC3)c2)c1` [compound 818, 4-[5-(aminomethyl)pyrimidin-2-yl]-3-(6-cyclopentyloxypyridazin-4-yl)oxybenzonitrile], 10 to 1000 nM; to `Cc1nc(-c2ccccc2)cn1Cc1cc(C#N)ccc1-c1ccc(C(O)CN)cn1` (centres unmarked) [compound 1139, 4-[5-(2-amino-1-hydroxyethyl)pyridin-2-yl]-3-[(2-methyl-4-phenylimidazol-1-yl)methyl]benzonitrile], 10 to 1000 nM.
Regarding `Cn1nc(-c2ccccc2)cc1Oc1cc(C#N)ccc1-c1ncc(C(O)CN)cn1` (centres unmarked) [Compound 248, 4-[5-(2-amino-1-hydroxyethyl)pyrimidin-2-yl]-3-(2-methyl-5-phenylpyrazol-3-yl)oxybenzonitrile], the IC50 is below 10 nM.
To `Cc1nc(Oc2cc(C#N)ccc2-n2cnc(C(O)CN)c2)cc(N2CCOCC2)n1` (centres unmarked) [Compound 169, 4-[4-(2-amino-1-hydroxyethyl)imidazol-1-yl]-3-(2-methyl-6-morpholin-4-ylpyrimidin-4-yl)oxybenzonitrile] belongs above 1000 nM; to `Cc1cc(Oc2cc(C#N)ccc2-c2ccc(CC(C)(C)N)cn2)cc(N2CCOCC2)n1` [compound 333, 4-[5-(2-amino-2-methylpropyl)pyridin-2-yl]-3-(2-methyl-6-morpholin-4-ylpyridin-4-yl)oxybenzonitrile], below 10 nM.
The figure for `Cc1nc(Oc2cc(C#N)ccc2-c2ncc(CN)cn2)cc(N2CCC[C@@H]2C)n1` [compound 795, 4-[5-(aminomethyl)pyrimidin-2-yl]-3-[2-methyl-6-[(2S)-2-methylpyrrolidin-1-yl]pyrimidin-4-yl]oxybenzonitrile] is below 10 nM; for `Cc1nc(Oc2cc(C#N)ccc2-c2cnc(N)nc2)cc(N2CCOCC2)n1` [Compound 14, 4-(2-aminopyrimidin-5-yl)-3-(2-methyl-6-morpholin-4-ylpyrimidin-4-yl)oxybenzonitrile] it is above 1000 nM; for `NCCc1ccc(-c2ccc(F)cc2C(=O)c2cnn(C3CCC3)c2)nc1` [compound 1110, [2-[5-(2-aminoethyl)pyridin-2-yl]-5-fluorophenyl]-(1-cyclobutylpyrazol-4-yl)methanone] it is below 10 nM.

(Values after patent US20230167073A1 (Teijin Pharma Limited, priority 2020, published 2023).)
